# System: Botrytis cinerea
# Assay: Fungicidal activity against Botryotinia fuckeliana inoculated on compound pre-treated one-leaf stage cucumber seedlings assessed as prevention of leaf lesions measured 3 days after inoculation
# Type: functional
row,SMILES,MIC [µg/mL]
1,CC(C)COc1c(C(F)(F)F)cc([N+](=O)[O-])c(Nc2ncc(C(F)(F)F)cc2Cl)c1[N+](=O)[O-],> 500
2,O=[N+]([O-])c1cc(C(F)(F)F)c(Cl)c([N+](=O)[O-])c1Nc1ncc(Cl)cc1Br,> 500
3,O=[N+]([O-])c1cc(C(F)(F)F)c(O)c([N+](=O)[O-])c1Nc1ncc(C(F)(F)F)cc1Cl,> 500
4,FC(F)(F)c1cnc(Nc2cc(Cl)c(Oc3ncc(C(F)(F)F)cc3Cl)c(Cl)c2)c(Cl)c1,> 500
5,COc1c(C(F)(F)F)cc([N+](=O)[O-])c(Nc2ncc(C(F)(F)F)cc2Cl)c1[N+](=O)[O-],> 500
6,O=[N+]([O-])c1cc(C(F)(F)F)c(Cl)c([N+](=O)[O-])c1Nc1ncc(Br)cc1Br,> 500
7,O=[N+]([O-])c1cc(C(F)(F)F)c(I)c([N+](=O)[O-])c1Nc1ncc(C(F)(F)F)cc1Cl,> 500
8,O=[N+]([O-])c1cc(C(F)(F)F)c(Cl)c([N+](=O)[O-])c1Nc1ncccc1C(F)(F)F,> 500
9,O=[N+]([O-])c1c(Cl)cc(Cl)c([N+](=O)[O-])c1Nc1ncc(C(F)(F)F)cc1Cl,> 500
10,Nc1c(C(F)(F)F)cc([N+](=O)[O-])c(Nc2ncc(C(F)(F)F)cc2Cl)c1[N+](=O)[O-],> 500
11,O=[N+]([O-])c1cc(C(F)(F)F)c(OCC(F)(F)C(F)F)c([N+](=O)[O-])c1Nc1ncc(C(F)(F)F)cc1Cl,> 500
12,O=[N+]([O-])c1cc(C(F)(F)F)c(Oc2ccc(C(F)(F)F)cc2Cl)c([N+](=O)[O-])c1Nc1ncc(C(F)(F)F)cc1Cl,> 500
13,NC(=O)c1cnc(Nc2c([N+](=O)[O-])cc(C(F)(F)F)c(Cl)c2[N+](=O)[O-])c(Cl)c1,> 500
14,CCOC(=O)c1cnc(Nc2c([N+](=O)[O-])cc(C(F)(F)F)c(Cl)c2[N+](=O)[O-])c(Cl)c1,> 500
15,Nc1c(Cl)c(C(F)(F)F)cc([N+](=O)[O-])c1Nc1ncc(C(F)(F)F)cc1Cl,> 500
16,CCCCOc1c(C(F)(F)F)cc([N+](=O)[O-])c(Nc2ncc(C(F)(F)F)cc2Cl)c1[N+](=O)[O-],> 500
17,Fc1c(Cl)cc(Nc2ncc(C(F)(F)F)cc2Cl)c(F)c1Cl,> 500
18,CCCSP(=O)(OCC)Oc1c(Cl)cc(Nc2ncc(C(F)(F)F)cc2Cl)cc1Cl (stereo unspecified),> 500
19,CCOc1c(C(F)(F)F)cc([N+](=O)[O-])c(Nc2ncc(C(F)(F)F)cc2Cl)c1[N+](=O)[O-],> 500
20,O=[N+]([O-])c1cc(C(F)(F)F)c(Oc2ccc(C(F)(F)F)cc2)c([N+](=O)[O-])c1Nc1ncc(C(F)(F)F)cc1Cl,> 500
21,COC(=O)c1cnc(Nc2c([N+](=O)[O-])cc(C(F)(F)F)c(Cl)c2[N+](=O)[O-])c(Cl)c1,> 500
22,O=[N+]([O-])c1cc(C(F)(F)F)c(Oc2ccccc2C(F)(F)F)c([N+](=O)[O-])c1Nc1ncc(C(F)(F)F)cc1Cl,> 500

row,SMILES,MIC [µg/mL]
1,O=[N+]([O-])c1c(Cl)c(C(F)(F)F)c(Cl)c([N+](=O)[O-])c1Nc1ncc(C(F)(F)F)cc1Cl,250
2,O=[N+]([O-])c1cc(C(F)(F)F)c(F)c([N+](=O)[O-])c1Nc1ncc(C(F)(F)F)cc1Cl,> 500
3,O=[N+]([O-])c1cc(C(F)(F)F)c(Cl)c([N+](=O)[O-])c1Nc1nc(F)c(C(F)(F)F)cc1Cl,< 16
4,O=[N+]([O-])c1cc(C(F)(F)F)c(Cl)c([N+](=O)[O-])c1Nc1nc(C(F)(F)F)c(Cl)cc1Cl,< 16
5,O=[N+]([O-])c1c(Cl)cc(Nc2ncc(C(F)(F)F)cc2Cl)c([N+](=O)[O-])c1Cl,> 500
6,O=[N+]([O-])c1cc(C(F)(F)F)c(Cl)c([N+](=O)[O-])c1Nc1ncc(C(F)(F)F)cc1C(F)(F)F,< 16
7,O=[N+]([O-])c1cc(C(F)(F)F)c(Cl)c([N+](=O)[O-])c1Nc1ncc(Br)cc1C(F)(F)F,63
8,CS(=O)(=O)c1cc([N+](=O)[O-])c(Nc2ncc(C(F)(F)F)cc2Cl)c([N+](=O)[O-])c1Cl,> 500
9,Cc1cc([N+](=O)[O-])c(Nc2ncc(C(F)(F)F)cc2Cl)c([N+](=O)[O-])c1Cl,> 500
10,O=[N+]([O-])c1cc(C(F)(F)F)c(Cl)c([N+](=O)[O-])c1Nc1ncc(C(F)(F)F)cc1Br,< 16
11,O=[N+]([O-])c1cc(C(F)(F)F)c(Cl)c([N+](=O)[O-])c1Nc1cc(C(F)(F)F)c(Cl)cn1,16
12,O=[N+]([O-])c1cc(C(F)(F)F)c(Cl)c([N+](=O)[O-])c1Nc1ncc(Br)cc1Cl,> 500
13,CSc1c(C(F)(F)F)cc([N+](=O)[O-])c(Nc2ncc(C(F)(F)F)cc2Cl)c1[N+](=O)[O-],> 500
14,O=[N+]([O-])c1cc(C(F)(F)F)c(Br)c([N+](=O)[O-])c1Nc1ncc(C(F)(F)F)cc1Cl,< 16
15,N#Cc1c(Cl)c(Cl)c(Cl)c(C#N)c1Nc1ncc(C(F)(F)F)cc1Cl,> 500
16,CCCOc1c(C(F)(F)F)cc([N+](=O)[O-])c(Nc2ncc(C(F)(F)F)cc2Cl)c1[N+](=O)[O-],> 500
17,O=[N+]([O-])c1cc(C(F)(F)F)c(Cl)c([N+](=O)[O-])c1Nc1ccc(C(F)(F)F)cn1,> 500
18,CC(C)Oc1c(C(F)(F)F)cc([N+](=O)[O-])c(Nc2ncc(C(F)(F)F)cc2Cl)c1[N+](=O)[O-],> 500
19,O=[N+]([O-])c1cc(C(F)(F)F)c(Cl)cc1Nc1ncc(C(F)(F)F)cc1Cl,> 500
20,O=[N+]([O-])c1cc(C(F)(F)F)c(OCC(F)(F)F)c([N+](=O)[O-])c1Nc1ncc(C(F)(F)F)cc1Cl,> 500
21,O=[N+]([O-])c1cc(C(F)(F)F)c(Nc2ncc(C(F)(F)F)cc2Cl)c([N+](=O)[O-])c1Cl,< 16
22,FC(F)(F)c1cnc(Nc2cc(Cl)cc(Cl)c2)c(Cl)c1,> 500

row,SMILES,MIC [µg/mL]
1,C[S+]([O-])c1c(C(F)(F)F)cc([N+](=O)[O-])c(Nc2ncc(C(F)(F)F)cc2Cl)c1[N+](=O)[O-] (stereo unspecified),> 500
2,N#Cc1cc([N+](=O)[O-])c(Nc2ncc(C(F)(F)F)cc2Cl)c([N+](=O)[O-])c1Cl,> 500
3,Cc1c(Cl)cnc(Nc2c([N+](=O)[O-])cc(C(F)(F)F)c(Cl)c2[N+](=O)[O-])c1Cl,> 500
4,O=[N+]([O-])c1cc(C(F)(F)F)c(Cl)c([N+](=O)[O-])c1Nc1ncc(Cl)cc1C(F)(F)F,16
5,CCN(CC)S(=O)(=O)c1cc([N+](=O)[O-])c(Nc2ncc(C(F)(F)F)cc2Cl)c([N+](=O)[O-])c1Cl,> 500
6,CCOP(=O)(Oc1c(Cl)cc(Nc2ncc(C(F)(F)F)cc2Cl)cc1Cl)SC(C)CC (stereo unspecified),> 500
7,CNc1nc(Nc2c([N+](=O)[O-])cc(C(F)(F)F)c(Cl)c2[N+](=O)[O-])c(Cl)cc1C(F)(F)F,> 500
8,Cc1c(Cl)c([N+](=O)[O-])c(Nc2ncc(C(F)(F)F)cc2Cl)c([N+](=O)[O-])c1Cl,> 500
9,N#CSc1c(C(F)(F)F)cc([N+](=O)[O-])c(Nc2ncc(C(F)(F)F)cc2Cl)c1[N+](=O)[O-],> 500
10,O=[N+]([O-])c1cc(C(F)(F)F)c(Oc2cccc(C(F)(F)F)c2)c([N+](=O)[O-])c1Nc1ncc(C(F)(F)F)cc1Cl,> 500
11,O=[N+]([O-])c1cc(C(F)(F)F)c(Cl)c([N+](=O)[O-])c1Nc1ncc(Cl)cc1Cl,> 500
12,O=[N+]([O-])c1cc(C(F)(F)F)c(Cl)c([N+](=O)[O-])c1Nc1ncc(C(F)(F)F)cc1Cl [FLUAZINAM],< 16
13,O=C(O)c1cnc(Nc2c([N+](=O)[O-])cc(C(F)(F)F)c(Cl)c2[N+](=O)[O-])c(Cl)c1,> 500
14,N#Cc1cnc(Nc2c([N+](=O)[O-])cc(C(F)(F)F)c(Cl)c2[N+](=O)[O-])c(Cl)c1,63
15,O=[N+]([O-])c1cc(C(F)(F)F)cc([N+](=O)[O-])c1Nc1ncc(C(F)(F)F)cc1Cl,> 500
16,COC(=O)c1cc([N+](=O)[O-])c(Nc2ncc(C(F)(F)F)cc2Cl)c([N+](=O)[O-])c1Cl,> 500
17,N#CNc1c(C(F)(F)F)cc([N+](=O)[O-])c(Nc2ncc(C(F)(F)F)cc2Cl)c1[N+](=O)[O-],> 500
18,Nc1cc(C(F)(F)F)c(Cl)c(N)c1Nc1ncc(C(F)(F)F)cc1Cl,> 500
19,Oc1c(Cl)cc(Nc2ncc(C(F)(F)F)cc2Cl)cc1Cl,> 500
20,O=[N+]([O-])c1cc(C(F)(F)F)c(OCCCl)c([N+](=O)[O-])c1Nc1ncc(C(F)(F)F)cc1Cl,> 500
21,CN(C)c1nc(Nc2c([N+](=O)[O-])cc(C(F)(F)F)c(Cl)c2[N+](=O)[O-])c(Cl)cc1C(F)(F)F,> 500
22,O=[N+]([O-])c1cc(C(F)(F)F)c(Cl)c([N+](=O)[O-])c1Nc1nc(Cl)c(C(F)(F)F)cc1Cl,< 16
